Test results from the supplement of paper PMC6045584.
± gives the standard deviation of the averaged measurements.

How the values were obtained:
RESVERATROL = compound: Oc1ccc(/C=C/c2cc(O)cc(O)c2)cc1 [RESVERATROL]; test: surviving fraction relative to DMSO-only wells; higher = less growth inhibition; details: exposure time: 5 days
Procedure, shortened: (§1)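 Continuous five-day exposure to inhibitors at 0.5, 1, 5, 10, 50, 100, 500 and 1000 nM started 24 hours after log-phase tumour cell lines were seeded at 250–500 cells per well in 384-well plates. Luminescence was read after 10 minutes at room temperature. Viability is given as surviving fraction, meaning CellTiter-Glo luminescence normalised to the median of DMSO-only wells.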

17-AAG = compound: C=CCNC1=C2C[C@@H](C)C[C@H](OC)[C@H](O)[C@@H](C)/C=C(\C)[C@H](OC(N)=O)[C@@H](OC)/C=C\C=C(/C)C(=O)NC(=CC1=O)C2=O [17-AAG]; test: as above; details: exposure time: 5 days
Procedure, shortened: as §1

| Test System | surviving fraction (RESVERATROL; 0.5 nM) | surviving fraction (RESVERATROL; 1 nM) | surviving fraction (RESVERATROL; 5 nM) | surviving fraction (RESVERATROL; 10 nM) | surviving fraction (RESVERATROL; 50 nM) | surviving fraction (RESVERATROL; 100 nM) | surviving fraction (RESVERATROL; 500 nM) | surviving fraction (RESVERATROL; 1000 nM) | surviving fraction (17-AAG; 0.5 nM) | surviving fraction (17-AAG; 1 nM) | surviving fraction (17-AAG; 5 nM) | surviving fraction (17-AAG; 10 nM) | surviving fraction (17-AAG; 50 nM) | surviving fraction (17-AAG; 100 nM) | surviving fraction (17-AAG; 500 nM) | surviving fraction (17-AAG; 1000 nM) |
| --- | --- | --- | --- | --- | --- | --- | --- | --- | --- | --- | --- | --- | --- | --- | --- | --- |
| 22RV1 PROSTATE | 1.01 ± 0.05 | 1.04 ± 0.076 | 1.05 ± 0.067 | 1.04 ± 0.024 | 0.981 ± 0.015 | 1.09 ± 0.032 | 0.961 ± 0.12 | 1.05 ± 0.079 | 0.906 ± 0.038 | 0.989 ± 0.043 | 0.975 ± 0.027 | 0.91 ± 0.069 | 0.687 ± 0.07 | 0.336 ± 0.047 | 0.134 ± 0.0046 | 0.0907 ± 0.011 |
| 93VU HEADNECK | 1.07 ± 0.11 | 1.07 ± 0.095 | 1.11 ± 0.065 | 1.14 ± 0.078 | 1.149 ± 0.0099 | 1.22 ± 0.16 | 1.1 ± 0.068 | 1.11 ± 0.15 | 0.814 ± 0.066 | 0.78 ± 0.0099 | 0.822 ± 0.088 | 0.92 ± 0.087 | 1.13 ± 0.099 | 0.119 ± 0.011 | 0.092 ± 0.0062 | 0.0827 ± 0.005 |
| 143B BONE | 0.925 ± 0.14 | 1.07 ± 0.016 | 1.01 ± 0.021 | 1.065 ± 0.0021 | 0.885 ± 0.19 | 0.947 ± 0.17 | 1.01 ± 0.037 | 1.11 ± 0.057 | 0.985 ± 0.047 | 0.992 ± 0.063 | 1.02 ± 0.029 | 0.965 ± 0.021 | 0.651 ± 0.011 | 0.271 ± 0.0071 | 0.0855 ± 0.00071 | 0.0855 ± 0.00071 |
| A549 LUNG | 1.03 ± 0.011 | 1.07 ± 0.043 | 1.05 ± 0.024 | 1.05 ± 0.026 | 1.04 ± 0.021 | 1.09 ± 0.06 | 1.07 ± 0.044 | 1.11 ± 0.062 | 0.923 ± 0.039 | 0.909 ± 0.038 | 0.91 ± 0.007 | 0.813 ± 0.076 | 0.14 ± 0.014 | 0.06 ± 0.0044 | 0.0547 ± 0.0032 | 0.0493 ± 0.00058 |
| ASKA SYNOVIAL | 1.12 ± 0.019 | 1.15 ± 0.089 | 1.22 ± 0.077 | 1.25 ± 0.058 | 1.12 ± 0.13 | 1.22 ± 0.051 | 1.1 ± 0.072 | 1.13 ± 0.1 | 0.785 ± 0.062 | 0.728 ± 0.11 | 0.626 ± 0.045 | 0.293 ± 0.025 | 0.206 ± 0.014 | 0.182 ± 0.02 | 0.185 ± 0.011 | 0.226 ± 0.0099 |
| BT20 BREAST | 1.05 ± 0.052 | 1.13 ± 0.1 | 1.13 ± 0.038 | 1.15 ± 0.059 | 1.06 ± 0.037 | 1.12 ± 0.078 | 1.12 ± 0.19 | 1.25 ± 0.12 | 0.804 ± 0.1 | 0.793 ± 0.054 | 0.504 ± 0.08 | 0.308 ± 0.034 | 0.303 ± 0.061 | 0.282 ± 0.091 | 0.261 ± 0.068 | 0.278 ± 0.047 |
| BT549 BREAST | 0.97 ± 0.081 | 1.1 ± 0.17 | 0.942 ± 0.14 | 1.09 ± 0.06 | 1.16 ± 0.038 | 1.01 ± 0.14 | 1.15 ± 0.047 | 1.12 ± 0.028 | 0.874 ± 0.12 | 0.811 ± 0.034 | 0.604 ± 0.092 | 0.259 ± 0.064 | 0.152 ± 0.028 | 0.0433 ± 0.0042 | 0.0447 ± 0.0045 | 0.0467 ± 0.0025 |
| C33A CERVIX | 0.928 ± 0.045 | 0.933 ± 0.052 | 0.956 ± 0.14 | 0.998 ± 0.032 | 0.978 ± 0.028 | 0.974 ± 0.096 | 0.946 ± 0.023 | 0.958 ± 0.049 | 1.22 ± 0.12 | 1.04 ± 0.14 | 1.4 ± 0.13 | 1.2 ± 0.09 | 1.31 ± 0.068 | 1.16 ± 0.1 | 1.061 ± 0.0074 | 0.124 ± 0.016 |
| CADOES1 SOFT TISSUE | 0.972 ± 0.09 | 0.939 ± 0.14 | 0.952 ± 0.047 | 0.931 ± 0.074 | 0.993 ± 0.023 | 1.02 ± 0.061 | 0.991 ± 0.017 | 1.02 ± 0.068 | 0.884 ± 0.093 | 1.01 ± 0.07 | 1 ± 0.076 | 0.903 ± 0.023 | 0.876 ± 0.11 | 0.842 ± 0.1 | 0.454 ± 0.1 | 0.129 ± 0.022 |
| CAL51 BREAST | 0.901 ± 0.03 | 1.04 ± 0.033 | 1.07 ± 0.034 | 1.03 ± 0.038 | 1.04 ± 0.056 | 1.03 ± 0.028 | 1.02 ± 0.047 | 1.1 ± 0.043 | 0.966 ± 0.047 | 0.886 ± 0.052 | 0.989 ± 0.033 | 0.93 ± 0.033 | 0.361 ± 0.0083 | 0.0827 ± 0.0082 | 0.0253 ± 0.00076 | 0.024 ± 0.0005 |
| CAL72 BONE | 1.07 ± 0.057 | 1.06 ± 0.084 | 1.05 ± 0.073 | 1.05 ± 0.12 | 1.05 ± 0.055 | 1.08 ± 0.1 | 1.04 ± 0.082 | 1.04 ± 0.12 | 1.05 ± 0.064 | 1 ± 0.016 | 0.982 ± 0.016 | 1 ± 0.017 | 1.15 ± 0.032 | 0.953 ± 0.04 | 0.249 ± 0.015 | 0.234 ± 0.011 |
| CAL120 BREAST | 0.966 ± 0.049 | 1.01 ± 0.059 | 0.975 ± 0.058 | 0.983 ± 0.069 | 1.02 ± 0.07 | 0.998 ± 0.043 | 1.04 ± 0.017 | 1.04 ± 0.056 | 0.87 ± 0.04 | 0.861 ± 0.032 | 0.904 ± 0.016 | 0.83 ± 0.0039 | 0.226 ± 0.024 | 0.119 ± 0.015 | 0.0875 ± 0.0079 | 0.076 ± 0.0061 |
| CASKI CERVIX | 0.938 ± 0.09 | 0.926 ± 0.033 | 0.959 ± 0.045 | 0.963 ± 0.049 | 1.03 ± 0.036 | 1.05 ± 0.099 | 0.993 ± 0.023 | 1.06 ± 0.041 | 0.745 ± 0.065 | 0.787 ± 0.04 | 0.77 ± 0.057 | 0.599 ± 0.072 | 0.1 ± 0.007 | 0.054 ± 0.0053 | 0.0283 ± 0.0025 | 0.0287 ± 0.0015 |
| CHLA90 AUTONOMIC GANGLIA | 1.01 ± 0.075 | 0.996 ± 0.049 | 0.984 ± 0.024 | 1.03 ± 0.033 | 0.962 ± 0.056 | 1.07 ± 0.043 | 1.07 ± 0.064 | 1.08 ± 0.053 | 0.927 ± 0.033 | 0.941 ± 0.023 | 0.912 ± 0.055 | 0.889 ± 0.037 | 0.476 ± 0.012 | 0.32 ± 0.018 | 0.175 ± 0.0084 | 0.143 ± 0.0023 |
| CME SYNOVIAL | 1.23 ± 0.043 | 1.29 ± 0.045 | 1.4 ± 0.15 | 1.44 ± 0.15 | 1.37 ± 0.059 | 1.38 ± 0.14 | 1.33 ± 0.18 | 1.21 ± 0.039 | 0.9 ± 0.14 | 0.767 ± 0.024 | 1.01 ± 0.12 | 0.896 ± 0.13 | 0.259 ± 0.033 | 0.222 ± 0.015 | 0.239 ± 0.029 | 0.306 ± 0.032 |
| COLO320DM LARGE INTESTINE | 1.06 ± 0.14 | 1 ± 0.062 | 1.07 ± 0.081 | 1.07 ± 0.04 | 1.03 ± 0.063 | 1.15 ± 0.086 | 1.08 ± 0.077 | 1.12 ± 0.031 | 1.04 ± 0.084 | 0.959 ± 0.094 | 1.05 ± 0.038 | 1.17 ± 0.075 | 1.26 ± 0.41 | 0.955 ± 0.16 | 0.505 ± 0.032 | 0.286 ± 0.048 |
| DU4475 BREAST | 1 ± 0.13 | 0.973 ± 0.051 | 0.967 ± 0.13 | 0.964 ± 0.074 | 0.985 ± 0.1 | 1.05 ± 0.17 | 1.02 ± 0.047 | 1.1 ± 0.22 | 0.798 ± 0.24 | 0.794 ± 0.15 | 0.764 ± 0.11 | 0.392 ± 0.11 | 0.0277 ± 0.0047 | 0.0283 ± 0.0051 | 0.027 ± 0.0066 | 0.0267 ± 0.0029 |
| H23 LUNG | 0.99 ± 0.019 | 1.06 ± 0.051 | 1.02 ± 0.071 | 1.05 ± 0.023 | 0.994 ± 0.044 | 1.07 ± 0.036 | 1 ± 0.034 | 1.11 ± 0.096 | 0.949 ± 0.026 | 0.939 ± 0.01 | 0.9313 ± 0.0035 | 0.727 ± 0.03 | 0.234 ± 0.0085 | 0.11 ± 0.014 | 0.0333 ± 0.0011 | 0.0323 ± 0.0025 |
| HCC78 LUNG | 0.894 ± 0.15 | 0.894 ± 0.065 | 0.983 ± 0.035 | 1.05 ± 0.15 | 1.12 ± 0.2 | 1.03 ± 0.1 | 0.901 ± 0.26 | 0.904 ± 0.1 | 0.814 ± 0.2 | 0.832 ± 0.067 | 0.961 ± 0.12 | 0.511 ± 0.097 | 0.0943 ± 0.0025 | 0.086 ± 0.011 | 0.053 ± 0.013 | 0.0667 ± 0.0021 |
| HCC202 BREAST | 1 ± 0.23 | 1.18 ± 0.11 | 1.14 ± 0.059 | 1.06 ± 0.05 | 1.75 ± 0.46 | 1.49 ± 0.42 | 1.32 ± 0.14 | 1.33 ± 0.39 | 0.965 ± 0.13 | 0.988 ± 0.31 | 0.715 ± 0.081 | 0.537 ± 0.17 | 0.264 ± 0.053 | 0.177 ± 0.021 | 0.171 ± 0.038 | 0.161 ± 0.027 |
